Data on three compounds can be found in ChEMBL document CHEMBL1140763, “Design, synthesis, and in vitro evaluation of new naphthylnitrobutadienes with potential antiproliferative activity: toward a structure/activity correlation” (Bioorg Med Chem, 2008).

Assay [1] has as its system A549. In words: Antiproliferative activity against human A549 cells by MTT assay. The class given is functional, cell-based.
Assay [2] relates to Jurkat. In words: Antiproliferative activity against human Jurkat cells by MTT assay. The class given is functional, cell-based.
The subject of assay [3] is MDA-MB-231. Description: Antiproliferative activity against human MDA-MB-231 cells by MTT assay. The class given is functional, cell-based.
The test system of assay [4] is HGC-27. In words: Antiproliferative activity against human HGC27 cells by MTT assay. Type of assay: functional, cell-based.
The subject of assay [5] is A2780. Description: Antiproliferative activity against human A2780 cells by MTT assay. Type of assay: functional, cell-based.
Assay [6] has as its system PA-1. Description: Antiproliferative activity against human PA1 cells by MTT assay. Type of assay: functional, cell-based.
For assay [7], the system named is P388. Description: Antiproliferative activity against mouse P388 cells by MTT assay. Type of assay: functional, cell-based.
Assay [8] concerns HCT-8. Description: Antiproliferative activity against human HCT8 cells by MTT assay. Type of assay: functional, cell-based.
Assay [9] deals with A549. In words: Cell cycle arrest in human A549 cells assessed as accumulation at G2/M phase at 1.56 uM after 48 hrs. The class given is functional.
Assay [10] has as its system Jurkat. Description: Cell cycle arrest in human Jurkat cells assessed as accumulation at G0/G1 phase at 6.25 uM after 48 hrs. The class given is functional.
In assay [11] the test system is HGC-27. In words: Cytotoxicity against human HGC27 cells after 72 hrs by Trypan blue assay. Type of assay: functional.
For assay [12], the system named is A549. In words: Cytotoxicity against human A549 cells after 72 hrs by Trypan blue assay. The class given is functional.
The test system of assay [13] is MDA-MB-231. In words: Cytotoxicity against human MDA-MB-231 cells after 72 hrs by Trypan blue assay. The class given is functional.
Assay [14] deals with MDA-MB-231. Description: Induction of apoptosis in human MDA-MB-231 cells by DAPI assay. The class given is functional.
Assay [15] relates to A549. Description: Cell cycle arrest in human A549 cells assessed as accumulation at S phase at 6.25 uM after 48 hrs. Type of assay: functional.
The subject of a further assay is NCI-H1299. In words: Induction of apoptosis in human H1299 cells by DAPI assay. The class given is functional.
Assay [16] has as its system Jurkat. In words: Cell cycle arrest in human Jurkat cells assessed as accumulation at S phase at 25 uM after 48 hrs. Type of assay: functional.
The test system of assay [17] is A549. In words: Cell cycle arrest in human A549 cells assessed as accumulation at G0/G1 phase at 6.25 uM after 48 hrs. The class given is functional.
The test system of assay [18] is A549. Description: Cell cycle arrest in human A549 cells assessed as accumulation at G2/M phase at 25 uM after 48 hrs. Type of assay: functional.
Assay [19] deals with A549. In words: Stimulation of p53 oncoprotein expression in human A549 cells at 6 uM after 72 hrs. Type of assay: functional.
Assay [20] has as its system Jurkat. In words: Cell cycle arrest in human Jurkat cells assessed as accumulation at G0/G1 phase at 1.56 uM after 48 hrs. The class given is functional.
Assay [21] concerns Jurkat. In words: Cell cycle arrest in human Jurkat cells assessed as accumulation at G2/M phase at 6.25 uM after 48 hrs. Type of assay: functional.
In assay [22] the test system is Jurkat. In words: Cell cycle arrest in human Jurkat cells assessed as accumulation at S phase at 1.56 uM after 48 hrs. The class given is functional.
For assay [23], the system named is A549. Description: Cell cycle arrest in human A549 cells assessed as accumulation at G0/G1 phase at 1.56 uM after 48 hrs. The class given is functional.
Assay [24] relates to Jurkat. In words: Cell cycle arrest in human Jurkat cells assessed as accumulation at S phase at 6.25 uM after 48 hrs. Type of assay: functional.
Assay [25] deals with A549. Description: Cell cycle arrest in human A549 cells assessed as accumulation at G2/M phase at 6.25 uM after 48 hrs. Type of assay: functional.
Assay [26] concerns A549. In words: Induction of apoptosis in human A549 cells by DAPI assay. Type of assay: functional.
Assay [27] has as its system Jurkat. Description: Cell cycle arrest in human Jurkat cells assessed as accumulation at G2/M phase at 25 uM after 48 hrs. The class given is functional.
Assay [28] concerns Jurkat. In words: Induction of apoptosis in human Jurkat cells by DAPI assay. Type of assay: functional.
Assay [29] has as its system A549. Description: Cell cycle arrest in human A549 cells assessed as accumulation at S phase at 25 uM after 48 hrs. Type of assay: functional.
In assay [30] the test system is A549. In words: Cell cycle arrest in human A549 cells assessed as accumulation at G0/G1 phase at 25 uM after 48 hrs. Type of assay: functional.
The subject of assay [31] is Jurkat. Description: Cell cycle arrest in human Jurkat cells assessed as accumulation at G0/G1 phase at 25 uM after 48 hrs. Type of assay: functional.
Assay [32] relates to HCT-8. Description: Induction of apoptosis in human HCT8 cells by DAPI assay. Type of assay: functional.
In assay [33] the test system is P388. Description: Induction of apoptosis in mouse P388 cells by DAPI assay. Type of assay: functional.
For assay [34], the system named is Jurkat. Description: Cell cycle arrest in human Jurkat cells assessed as accumulation at G2/M phase at 1.56 uM after 48 hrs. The class given is functional.
Assay [35] concerns A549. In words: Cell cycle arrest in human A549 cells assessed as accumulation at S phase at 1.56 uM after 48 hrs. Type of assay: functional.
For assay [36], the system named is P388. In words: Effect on interstrand cross linking in DNA in mouse P388 cells at 0.1 uM. The class given is functional.
Assay [37] has as its system PA-1. Description: Cytotoxicity against human PA1 cells after 72 hrs by Trypan blue assay. Type of assay: functional.
Assay [38] concerns A2780. Description: Induction of apoptosis in human A2780 cells by DAPI assay. The class given is functional.
For assay [39], the system named is HCT-8. In words: Cytotoxicity against human HCT8 cells after 72 hrs by Trypan blue assay. Type of assay: functional.
Assay [40] concerns A2780. In words: Cytotoxicity against human A2780 cells after 72 hrs by Trypan blue assay. Type of assay: functional.
In assay [41] the test system is P388. Description: Effect on interstrand cross linking in DNA in mouse P388 cells at 1 uM. Type of assay: functional.
Assay [42] relates to HGC-27. In words: Induction of apoptosis in human HGC27 cells by DAPI assay. Type of assay: functional.
For assay [43], the system named is MDA-MB-231. Description: Stimulation of p53 oncoprotein expression in human MDA-MB-231 cells at 0.9 uM. The class given is functional.
Assay [44] can be described thus: Antiproliferative activity against human H1299 cells by MTT assay. Type of assay: functional, cell-based. The note with it: NCI-H1299.
Assay [45] has as its system PA-1. Description: Stimulation of p53 oncoprotein expression in human PA1 cells at 1.6 uM. Type of assay: functional.
Assay [46] has as its system Jurkat. In words: Cytotoxicity against human Jurkat cells after 72 hrs by Trypan blue assay. The class given is functional.
Assay [47] deals with PA-1. Description: Induction of apoptosis in human PA1 cells by DAPI assay. Type of assay: functional.
For assay [48], the system named is P388. Description: Cytotoxicity against mouse P388 cells after 72 hrs by Trypan blue assay. The class given is functional.
Assay [49] can be described thus: Cytotoxicity against human H1299 cells after 72 hrs by Trypan blue assay. The class given is functional, NCI-H1299.

As for `O=[N+]([O-])C(=C/c1cccc2ccccc12)/C(=C\c1cccc2ccccc12)[N+](=O)[O-]`, the IC50 was determined as 14.3 µM with A549 [1]; 2.8 µM with Jurkat [2]; 9.3 µM in the assay with MDA-MB-231 [3]; 9 µM in the assay with HGC-27 [4]; 2 µM in the assay on A2780 [5]; 3.6 µM with PA-1 [6]. Moreover, the concentration for half-maximal inhibition (IC50) in the assay with P388 [7] was 2.1 µM; with HCT-8 [8], 9.8 µM.

Consider `COC(=O)/C(=C/C(=C\c1cccc2ccccc12)[N+](=O)[O-])SC`, for which the Activity with A549 [9] came to 16.6%; in the assay on Jurkat [10], 41.3%; with HGC-27 [11] it was 21%; in the assay on A549 [12] it was 46%; in the assay on MDA-MB-231 [13], 16%; in the assay with MDA-MB-231 [14] it was 4%. Besides, the Activity in the assay on A549 [15] worked out at 33%; in the assay on NCI-H1299, 2%; in the assay on Jurkat [16], 22.4%; in the assay on A549 [17], 49%; with A549 [18] it was 36.5%; with A549 [19], 2%. Also, the Activity in the assay with Jurkat [20] is recorded as 31.1%; in the assay on Jurkat [21] it was 20.4%; with Jurkat [22], 50.3%; with A549 [23], 46.5%; in the assay with Jurkat [24], 38.3%; in the assay on A549 [25], 18%. Besides, the Activity was determined as 60% in the assay with A549 [26]; 26.4% in the assay on Jurkat [27]; 14% in the assay on Jurkat [28]; 22.5% in the assay with A549 [29]; 41.2% in the assay on A549 [30]; 51.2% in the assay with Jurkat [31]. The Activity in the assay with HCT-8 [32] was 5%; with P388 [33], 27%; with Jurkat [34], 18.6%; in the assay with A549 [35], 36.9%; with P388 [36] it was 1.7%; in the assay with PA-1 [37] it was 22%. For the same compound, the Activity with A2780 [38] was 25%; with HCT-8 [39] it was 10%; in the assay with A2780 [40] it was 55%; in the assay with P388 [41], 3.5%; in the assay with HGC-27 [42], 7%; with MDA-MB-231 [43] it was 2%. For the same compound, the Activity was 2% in the assay with PA-1 [45]; 67% in the assay with Jurkat [46]; 11% in the assay with PA-1 [47]; 75% in the assay with P388 [48]; 14% in [49]. Moreover, the IC50 came to 6 µM with A549 [1]; 3.2 µM in the assay on Jurkat [2]; 0.9 µM in the assay with MDA-MB-231 [3]; 2.1 µM in the assay with HGC-27 [4]; 2.1 µM in the assay with A2780 [5]; 1.6 µM in the assay with PA-1 [6]. Also, the IC50 with P388 [7] came to 1.4 µM; with HCT-8 [8] it was 12.7 µM; in assay [44], 2.8 µM.

Turning to `O=C(O)c1ccc(/C=C(\C(=C/c2ccc(C(=O)O)c3ccccc23)[N+](=O)[O-])[N+](=O)[O-])c2ccccc12`, the IC50 in the assay on Jurkat [2] is 172 µM; in the assay on A2780 [5], 360 µM; with PA-1 [6], 129 µM; with P388 [7] it was 145 µM.
